In test [1] the test system is LHGFR0N3C. The experiment in a line: Specificity of purified LHGFR0N3C, emission ratio with 240 μM compounds. Format: binding, Pseudomonas putida W619. Particulars: 240 μM compound. The protocol: (§1) Purified L-2-HG biosensors and different compounds were diluted by 50 mM Tris-HCl buffer (pH 7.4), mixed together in a black 96-well plate at a volume ratio of 3:1, and the fluorescence intensities were measured using an EnSight microplate reader (PerkinElmer, USA) with excitation at 430 nm, emission at 485 nm (mTFP) and 528 nm (Venus). […] The [L-2-HG], Kd, and p refer to the L-2-HG concentration, apparent dissociation constant, and Hill slope, respectively. Emission spectra were recorded at 430 nm excitation, in steps of 2 nm. Excitation spectra were recorded using emission at 550 nm, excitation from 380 to 535 nm in steps of 2 nm.

A further test concerns LhgR. The experiment in a line: EMSA, effect of compounds on LhgR binding to the lhgO promoter region F1. Also on record: species or system Pseudomonas putida W619. Particulars: 50 mM compound, 10 nM F1, 60 nM LhgR. The protocol:
Electrophoretic mobility shift assays (EMSAs) were carried out using the DNA fragment (F1 or F2) and purified LhgR. The DNA fragments were first amplified by primer pairs F1-F/F1-R and F2-F/F2-R, respectively. Then, either fragment at a concentration of 10 nM DNA was incubated with LhgR (0–160 nM) in 20 μL EMSA binding buffer (10 mM Tris-HCl [pH 7.4], 50 mM KCl, 0.5 mM EDTA, 10% [vol/vol] glycerol, and 1 mM dithiothreitol [DTT]). The binding reactions were carried out at 30 °C for 30 min. Electrophoresis was performed on 6% native polyacrylamide gels at 4 °C and 170 V (constant voltage) for about 45 min, followed by staining with SYBR green I (TaKaRa, China) and photographing. Analysis of the interaction between lhgO promoter region (F1) and LHGFR was performed using the same procedure.
To characterize the effector of LhgR, purified LhgR was first incubated with L-lysine, 5-aminovalerate, glutarate, L-2-HG, D-2-HG, 2-KG, or succinate at 30 °C for 15 min, followed by incubation with the added DNA fragments at 30 °C for 30 min. The mixtures were subsequently subjected to electrophoresis.

Test [2] relates to LHGFR0N7C. The experiment in a line: Specificity of purified LHGFR0N7C, emission ratio with 240 μM compounds. Format: binding, Pseudomonas putida W619. The following applies: 240 μM compound. The protocol: as §1
For test [3], the system named is LHGFR0N3C. The experiment in a line: Influence of other compounds on the response of purified LHGFR0N3C to L-2-HG. The class given is binding, Pseudomonas putida W619. The following applies: Suppl. Fig. 9a; L-2-HG alone or with the compound; three replicates. The protocol:
as §1

The test system of test [4] is LHGFR0N7C. Kind of test: Influence of other compounds on the response of purified LHGFR0N7C to L-2-HG. Format: binding, Pseudomonas putida W619. Particulars: Suppl. Fig. 9b; L-2-HG alone or with the compound; three replicates. The procedure:
as §1

In test [5] the target is LhgR (Pseudomonas putida W619). Kind of test: SEC; gel filtration on Superdex 200 10/300 GL against protein mass standards, compared with SDS-PAGE; 50 mM sodium phosphate, 150 mM sodium chloride, pH 7.2.
The next test deals with HEK293FT cells. The experiment in a line: Hypoxia-induced L-2-HG production in LHGFR-expressing HEK293FT cells with or without 5 mM DMαKG. The class given is cell-based, human. Particulars: for L-2-HG concentration: in µM. The protocol:
HEK293FT cells were cultured in high-glucose Dulbecco’s modified eagle medium (DMEM) supplemented with 10% (vol/vol) fetal bovine serum (FBS), 100 units mL^−1 penicillin, and 100 μg mL^−1 streptomycin (all purchased from ThermoFisher, USA), and kept at 37 °C in humidified air containing 5% CO2. For hypoxia experiments, cells were kept in a compact O2 and CO2 subchamber controller (ProOx C21, BioSpherix, USA) at 2% O2, 5% CO2, and balanced with N2 for 24 h. For the construction of LHGFR expressing cell, HEK293FT cells were plated in 24-well plates so that they reached 70-90% confluency 24 h after plating, the medium was refreshed 2 h before transfection.
The preparation of cell suspensions and the measurement of emission ratios were performed using the same procedure. The background fluorescence was subtracted at each emission wavelength.

Test [6] has as its target T1, LHGFR0N7C.
T1 construct: FRET sensor: LhgR truncated by seven C-terminal amino acids between mTFP (N-terminus) and Venus (C-terminus)
Kind of test: FRET titration of purified sensor with D-2-HG (10 nM to 2 mM) in 50 mM Tris-HCl pH 7.4, Venus/mTFP emission ratio (excitation 430 nm). The following applies: SD, n = 3; read-out: apparent Kd in response to D-2-HG. Format: binding. The protocol: Purified L-2-HG biosensors and different compounds were diluted by 50 mM Tris-HCl buffer (pH 7.4), mixed together in a black 96-well plate at a volume ratio of 3:1, and the fluorescence intensities were measured using an EnSight microplate reader (PerkinElmer, USA) with excitation at 430 nm, emission at 485 nm (mTFP) and 528 nm (Venus). The dose-response curves were fitted by OriginPro 2016 software (OriginLab) according to the following formula:1 R=Rmax+Rmin−Rmax/1+([L-2-HG]/Kd)^p where R, Rmin, and Rmax refer to the emission ratio of Venus to mTFP, ratio in the absence of L-2-HG, and ratio at saturation with L-2-HG, respectively. The [L-2-HG], Kd, and p refer to the L-2-HG concentration, apparent dissociation constant, and Hill slope, respectively. Emission spectra were recorded at 430 nm excitation, in steps of 2 nm. Excitation spectra were recorded using emission at 550 nm, excitation from 380 to 535 nm in steps of 2 nm. […]
column in the presence of only L-2-HG was used as the control. (c, d) Comparison of the […]
LHGFR0N7C (d). […]
response to D-2-HG (1.85 ± 0.91 mM; black line) than L-2-HG (7.22 ± 0.38 μM; red line). (e-j) Dose-response curves of LHGFR0N3C (e, g, and i) and LHGFR0N7C (f, h, and j) for increasing concentrations (10 nM to 2 mM) of L-2-HG were measured in the presence of 240 μM D-2-HG (e, f), 1 mM 2-KG (g, h), or 1 mM ATP (i, j). […]

Here are results for eight compounds from publication PMC8206213, “An L-2-hydroxyglutarate biosensor based on specific transcriptional regulator LhgR” (Nature Communications, 2021).

Where “and” joins values, the source holds several entries; their conditions need not be identical. Equal entries are not always repeated.

In the case of `O=C(O)CCC(=O)C(=O)O` [2-KG, 2-ketoglutarate], the Emission ratio with LHGFR0N3C [1] was 1.349 and 1.385 and 1.381; with LHGFR0N7C [2], 1.701 and 1.693 and 1.728; in the test with LHGFR0N3C [3], 2.007 and 2.049 and 2.099; in the test with LHGFR0N7C [4], 2.436 and 2.603 and 2.441. The “Induction of emission ratio changes” value in the test with LHGFR0N3C [1] and in the test on LHGFR0N7C [2] was “None” throughout. In addition, in the test on LhgR, the “Effect on LhgR binding to the lhgO promoter region F1” value (from here on “Effect on LhgR binding”) is on record as “observed only in the presence of L-2-HG”.
The compound LhgR (natural protein) gave a stoichiometry N in test [5] of 2.
With `COC(=O)CCC(=O)C(=O)OC` [DMaKG], the Normalized emission ratio was 1.018 and 0.9342 and 1.029 and 0.9552 in the test with HEK293FT cells (2% O2, With DMaKG, Supplementary Fig. 18e); 1.029 and 0.993 and 1.008 and 0.9754 with HEK293FT cells (21% O2, With DMaKG, Supplementary Fig. 18e); 1.196 and 1.188 and 1.187 and 1.206 in the test with HEK293FT cells (Fig. 6f, 2% O2, With DMaKG); 1.081 and 1.084 and 1.102 and 1.071 with HEK293FT cells (Fig. 6f, 21% O2, With DMaKG). The L-2-HG concentration with HEK293FT cells (Fig. 6f, 2% O2, With DMaKG) is 547.911 and 427.301 and 412.83 and 794.44; with HEK293FT cells (Fig. 6f, 21% O2, With DMaKG), 66.2807 and 68.36 and 87.5008 and 58.4114.
In the case of `NCCCC[C@H](N)C(=O)O` [L-Lysine, L-lysine], the Emission ratio in the test with LHGFR0N3C [1] was 1.377 and 1.382 and 1.394; in the test on LHGFR0N7C [2] it was 1.692 and 1.701 and 1.71; with LHGFR0N3C [3] it was 2.026 and 2.06 and 2.101; in the test with LHGFR0N7C [4] it was 2.577 and 2.607 and 2.654. The “Induction of emission ratio changes” value in the test on LHGFR0N3C [1] and in the test on LHGFR0N7C [2] was “None” each time. Also, the “Effect on LhgR binding” value in the test with LhgR was “observed only in the presence of L-2-HG”.
For `O=C(O)CCC(=O)O` [Succinate, succinate], the Emission ratio in the test on LHGFR0N3C [1] is 1.357 and 1.389 and 1.4025; in the test with LHGFR0N7C [2], 1.718 and 1.724 and 1.726; in the test with LHGFR0N3C [3], 2.013 and 2.0132 and 2.099; in the test on LHGFR0N7C [4] it was 2.581 and 2.619 and 2.616. Further, the “Induction of emission ratio changes” value in the test on LHGFR0N3C [1] and in the test with LHGFR0N7C [2] was “None” each time. The “Effect on LhgR binding” value in the test on LhgR is “observed only in the presence of L-2-HG”.
As to `O=C(O)CC[C@@H](O)C(=O)O` [D-2-HG, D-2-hydroxyglutarate], the Kd at LHGFR0N7C [6] is 1850 µM.
Turning to `NCCCCC(=O)O` [5-Aminovalerate, 5-aminovalerate], the Emission ratio in the test with LHGFR0N3C [1] is 1.403 and 1.397 and 1.408; in the test on LHGFR0N7C [2] it was 1.703 and 1.69 and 1.7015; in the test with LHGFR0N3C [3], 2.084 and 2.019 and 2.1; in the test with LHGFR0N7C [4], 2.625 and 2.696 and 2.709. Besides, the “Induction of emission ratio changes” value in the test on LHGFR0N3C [1] and in the test on LHGFR0N7C [2] was “None” in each case. The “Effect on LhgR binding” value in the test with LhgR was “observed only in the presence of L-2-HG”.
Turning to `COC(=O)CCC(=O)C(=O)OC` [dimethyl-2-ketoglutarate], the “Effect on emission ratio of LHGFR0N3C” value in the test with HEK293FT cells (5 mM, hypoxic conditions, 24 h) is “significantly increased the emission ratio of LHGFR0N3C under hypoxic conditions”.
